Measured values taken from US20250205164A1, “FPR2 AGONIST CONTAINING OUTER MEMBRANE VESICLES DERIVED FROM LACTIC ACID BACTERIUM” (ASAHI GROUP HOLDINGS, LTD., priority 2022, published 2025).

System: M2 macrophages differentiated from human monocyte-derived cells (THP-1)
Test: IL-10 inducing ability in M2 macrophages (Human IL-10 ELISA of culture supernatant)
Type: cell-based
Conditions: Reference Example 1; 500 ng/ml FSL-1, 5000 nM WKYMVm at preparation, final 1/50; 24 hours; n=6
Protocol: The anti-inflammatory cytokine IL-10 inducing ability in M2 macrophages differentiated from human monocyte-derived cells (THP-1, JCRB Cell Bank) was evaluated by the following procedure, which is a modification of the method described in the literature (BMC Cancer 15:577 (2015)). […]
After the culture, the culture supernatant was collected, and the IL-10 concentration in the supernatant was calculated using Human IL-10 DuoSet ELISA (R&D Systems). […]
Student's t-test was used for statistical processing. […] The results of IL-10 concentration are shown as the average of the values measured in six tests. […]
The IL-10 inducing activity of the test samples was evaluated according to the procedure described in [Reference Example 1] above. […]
The IL-10 induction rate was calculated according to the following formula. […]

Substance: FSL-1
- IL-10 Concentration (pg/mL) Average: 180.8 pg/mL
